According to patent US5523223A, “Ketoester reductase for conversion of keto acid esters to optically active hydroxy acid esters” (priority 1992, dated 1996):
Where two headings read alike, the source gives them in different places.

Assays:
[1] = test system: KERed from Candida parapsilosis; experiment: Kinetic characterization of the KERed; assay type: biochemical
[2] = test system: KERed from C. parapsilosis; experiment: Substrate spectrum of the KERed; assay type: biochemical, Candida parapsilosis; conditions: for Acceptance as substrate by the KERed (in words): reduction with NADH; for Rel. Activity: substrate 8 mM, activity with 5-oxo-hexanoic acid ethyl ester = 100%, NADH 0.2 mM, pH 7.9
Procedure: For the following investigation, partially purified enzyme (after Q-sepharose chromatography, 67-times enrichment) was used. […]
5-oxohexanoic acid ethyl ester […]
Corresponding to example 3.B, instead of 5-oxohexanoic acid ethyl ester a series of aromatic and aliphatic ketoesters, ketoacids, ketones, diketones and aldehydes were investigated as to whether they could be reduced enzymatically. For this the compounds were added always in 8 mM final concentration. […] The activity with 5-oxo-hexanoic acid ethyl ester was arbitrarily selected as 100%.

[3] = referred to 2-butanone, partially purified enzyme

| SMILES | Vmax [1, 3] | Rel. Activity [2] [%] | also measured |
| --- | --- | --- | --- |
| CCCO [1-propanol] | 47% |  | Km ([1]; partially purified enzyme): 3800 µM |
| CC=O [Acetaldehyde] | 129% |  | Acceptance as substrate by the KERed (in words) [2]: acceptable as substrates; Km ([1]; partially purified enzyme): 85 µM |
| CCCCCCCC(C)=O [2-nonanone] | 45% |  | Km ([1]; partially purified enzyme): 314 µM; Ki ([1]; substrate inhibition observed, read-out: Kis (substrate inhibition)): 24.9 mM |
| CCCCC(C)=O [2-hexanone] | 53% |  | Km ([1]; partially purified enzyme): 54 µM |
| CCCCCC(C)=O [2-heptanone] | 58% |  | Km ([1]; partially purified enzyme): 97 µM |
| CC(=O)CCCC(=O)O |  | 0 |  |
| CCCCCC(=O)CC [3-octanone] | 12% |  | Km ([1]; partially purified enzyme): 11200 µM |
| CCCC(=O)CCC [4-heptanone] | 9% |  | Km ([1]; partially purified enzyme): 5300 µM |
| CCC(=O)C(C)C [2-methyl-3-pentanone] |  |  | Acceptance as substrate by the KERed (in words) [2]: acceptable as substrates |
| CCOC(=O)C(C)C(C)=O (stereo not drawn) |  | 70 |  |
| COCC(C)=O [methoxy-2-propanone] |  |  | Acceptance as substrate by the KERed (in words) [2]: acceptable as substrates |
| COCC(C)=O [drawing 35] |  | 53 |  |
| CC(=O)c1ccccc1Cl |  | 0 |  |
| CCOC(=O)CC(=O)C(F)(F)F [drawing 10] |  | 21 |  |
| CCOC(=O)CC(C)=O [drawing 4] |  | 61 |  |
| CCCC(=O)CC(=O)OCC [drawing 14] |  | 51 |  |
| O=CC1CCCCC1 |  | 29 |  |
| CCCCC(=O)CC [3-heptanone] | 11% |  | Km ([1]; partially purified enzyme): 5600 µM |
| CCC=O [propionaldehyde] |  |  | Acceptance as substrate by the KERed (in words) [2]: acceptable as substrates |
| CCCC(C)=O [2-pentanone] | 62% |  | Acceptance as substrate by the KERed (in words) [2]: acceptable as substrates; Km ([1]; partially purified enzyme): 141 µM |
| CCC(C)=O [2-Butanone] | 100% |  | Acceptance as substrate by the KERed (in words) [2]: acceptable as substrates; Km ([1]; partially purified enzyme): 1480 µM; Vmax of the reference substrate ([1]; partially purified enzyme): 6 U mg |

| SMILES | Vmax [1, 3] | Rel. Activity [2] [%] | also measured |
| --- | --- | --- | --- |
| CCOC(=O)CC(=O)CCl [Ethyl 4-chlor-3-oxo-butanoate] | 10% |  | Km ([1]; partially purified enzyme): 3560 µM |
| CCOC(=O)CC(=O)CC [drawing 13] |  | 32 |  |
| CCCCCC(=O)CC [drawing 41] |  | 33 |  |
| CCCC(=O)CC [3-hexanone] | 10% |  | Km ([1]; partially purified enzyme): 840 µM |
| COC(OC)C(C)=O [Pyruvaldehyde-Dimethyl-acetal] | 24% |  | Km ([1]; partially purified enzyme): 189 µM |
| CC(=O)c1ccc(Cl)cc1 [4-chloro-acetophenone] | 19% |  | Km ([1]; partially purified enzyme): 10 µM |
| CCC(=O)c1ccccc1 [drawing 31] |  | 0 |  |
| CC[C@H](C)O [(S)-2-butanol] |  |  | Km [1]: 600 µM; Vmax [1]: 210% |
| CC(=O)C(C)Cl (stereo not drawn) [drawing 34] |  | 105 |  |
| CCCCCCC(C)=O [2-octanone] | 62% |  | Acceptance as substrate by the KERed (in words) [2]: acceptable as substrates; Km ([1]; partially purified enzyme): 324 µM |
| COC(=O)CC(C)=O |  | 67 |  |
| CCCC(=O)CC [drawing 43] |  | 4 |  |
| CC(=O)C(C)C |  | 28 |  |
| CC(=O)CCC(C)=O |  | 46 |  |
| CC(=O)c1cccc(Cl)c1 [3-chloro-aceto-phenone] | 32% |  | Acceptance as substrate by the KERed (in words) [2]: acceptable as substrates; Km ([1]; partially purified enzyme): 15 µM |
| CCOC(=O)CC(=O)CC [Ethyl 3-oxopentanoate] | 17% |  | Km ([1]; partially purified enzyme): 6900 µM |
| CC(=O)CC(=O)OC(C)(C)C [drawing 5] |  | 137 |  |
| CC(=O)C(C)Cl (stereo not drawn) [3-chloro-2-butanone] | 50% |  | Acceptance as substrate by the KERed (in words) [2]: acceptable as substrates; Km ([1]; partially purified enzyme): 442 µM |
| CCCC(C)=O [drawing 39] |  | 40 |  |
| CC(=O)C(C)(C)O |  | 0 |  |
| CC(=O)CC(C)=O [drawing 18] |  | 15 |  |

| SMILES | Vmax [1, 3] | Rel. Activity [2] [%] | also measured |
| --- | --- | --- | --- |
| CCOC(=O)CC(=O)CCl [drawing 11] |  | 92 |  |
| CC(C)=O [Acetone] | 97% |  | Km [1]: 1060 µM |
| CCC=O [drawing 47] |  | 127 |  |
| CC1CCC(=O)CC1 |  | 40 |  |
| CCOC(=O)CC(=O)C(C)C |  | 24 |  |
| CC(=O)c1ccc(Br)cc1 [4-bromoacetophenone] |  |  | Acceptance as substrate by the KERed (in words) [2]: acceptable as substrates |
| NC(=O)C1=CN([C@@H]2O[C@H](COP(=O)(O)OP(=O)(O)OC[C@H]3O[C@@H](n4cnc5c(N)ncnc54)[C@H](O)[C@@H]3O)[C@@H](O)[C@H]2O)C=CC1 [NADH] |  |  | Km ([1]; partially purified enzyme): 38 µM |
| CCOC(=O)C1CCCCC1=O (stereo not drawn) |  | 16 |  |
| CC(C)C=O [drawing 48] |  | 178 |  |
| CC1CCCCC1=O (stereo not drawn) |  | 12 |  |
| CC(=O)c1ccc(Br)cc1 [drawing 29] |  | 40 |  |
| CCOC(=O)CC(=O)C(F)(F)F [Ethyl 4-trifluor-3-oxo-butanoate] | 11% |  | Km ([1]; partially purified enzyme): 2000 µM |
| CCC(=O)CC(C)=O [drawing 19] |  | 46 |  |
| CC(=O)c1ccc(F)cc1 [drawing 30] |  | 40 |  |
| CCC(=O)C(C)C [drawing 37] |  | 51 |  |
| CCC(=O)CC(C)=O [2,4-hexanedione] |  |  | Acceptance as substrate by the KERed (in words) [2]: acceptable as substrates |
| CCCCCCC(C)=O [drawing 40] |  | 54 |  |
| CCOC(=O)CC(C)=O [drawing 3] |  | 76 |  |
| NC(=O)C1=CN([C@@H]2O[C@H](COP(=O)(O)OP(=O)(O)OC[C@H]3O[C@@H](n4cnc5c(N)ncnc54)[C@H](OP(=O)(O)O)[C@@H]3O)[C@@H](O)[C@H]2O)C=CC1 [NADPH] | No Reaction |  |  |
| CC(=O)CCC(=O)O [drawing 6] |  | 0 |  |
| CC(=O)c1cccc(Cl)c1 [drawing 28] |  | 35 |  |

| SMILES | Vmax [1, 3] | Rel. Activity [2] [%] | also measured |
| --- | --- | --- | --- |
| CC(=O)c1ccccc1 [drawing 26] |  | 34 |  |
| CC(=O)c1ccc(F)cc1 [4-fluoroacetophenone] |  |  | Acceptance as substrate by the KERed (in words) [2]: acceptable as substrates |
| CCCCCCCCC(C)=O [2-decanone] | 20% |  | Km ([1]; partially purified enzyme): 3960 µM |
| COC(CC(C)=O)OC |  | 14 |  |
| CCC(=O)CC(=O)OC |  | 18 |  |
| CCCCO [1-butanol] | 47% |  | Km ([1]; partially purified enzyme): 2900 µM |
| CC(C)O [2-propanol] | 183% |  | Km ([1]; partially purified enzyme): 2210 µM |
| CCOC(=O)CCCC(C)=O |  | 100 |  |
| CC(=O)C(Cl)Cl [drawing 33] |  | 60 |  |
| O=C1Nc2ccccc2C1=O |  | 0 |  |
| CCOC(=O)CC(=O)c1ccccc1 |  | 0 |  |
| CC(=O)CC(C)=O [2,4-pentanedione] |  |  | Acceptance as substrate by the KERed (in words) [2]: acceptable as substrates |
| CCC(C)=O [drawing 38] |  | 48 |  |
| CCOC(=O)CCC(C)=O [drawing 7] |  | 76 |  |
| CC=O [drawing 46] |  | 150 |  |
| CO [Methanol] | No Reaction |  |  |
| O=C1CCCC(=O)C1 |  | 0 |  |
| CC(=O)CC(=O)OC(C)(C)C [Tert.-Butyl 3-oxo-butanoate] | 71% |  | Km ([1]; partially purified enzyme): 356 µM |
| CC(C)C=O [isobutyraldehyde] |  |  | Acceptance as substrate by the KERed (in words) [2]: acceptable as substrates |
| COC(OC)C(C)=O [drawing 44] |  | 118 |  |
| CCC(=O)c1ccccc1 [propiophenone] |  |  | Acceptance as substrate by the KERed (in words) [2]: acceptable as substrates |
